Source: US5306824A, “Biotinylated isocoumarins” (Georgia Tech Research Corporation, priority 1992, dated 1994)

Legend:
PPE [1] = target: T1, PPE (Sus scrofa, UniProt P00772); experiment: Effect of streptavidin and avidin on reactivation of inhibited PPE; format: biochemical, porcine; conditions: monitored for two days
Description: ^a Percentage of regained enzymatic activity was measured in 0.1 M
Hepes, 0.5 M NaCl, pH 7.5 buffer, 8% Me2 SO and at 25° C.
Excess inhibitor was removed from enzymeinhibitor mixture by
centrifugation twice with Amicon microconcentrator10. Then 3-4 units of
avidin or strepavidin was added and enzymatic activity was monitored for […]

[2] = target: T2, human leukocyte elastase (HLE) (Homo sapiens, UniProt P08246); experiment: Inactivation of human leukocyte elastase by biotin-isocoumarins (incubation method); format: biochemical; conditions: inhibitor 1.6-210 μM; pH 7.5, 25° C.; read-out: kobs/[I] HLE
T2 sequence (P08246 30-267): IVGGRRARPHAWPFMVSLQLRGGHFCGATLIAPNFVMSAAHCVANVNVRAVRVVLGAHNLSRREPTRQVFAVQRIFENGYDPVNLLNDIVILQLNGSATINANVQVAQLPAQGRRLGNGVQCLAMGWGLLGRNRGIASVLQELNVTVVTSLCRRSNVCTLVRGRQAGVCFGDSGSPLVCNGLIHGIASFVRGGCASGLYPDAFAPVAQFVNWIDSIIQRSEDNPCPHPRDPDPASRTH
Description: (§1) Inactivation rates of serine proteases by substituted isocoumarins were measured by the incubation method. An aliquot of inhibitor (25 or 50 μl) in Me2 SO was added to a buffered enzyme solution (0.01-2.3 μM) to initiate the inactivation. Aliquots (50-100 μl) were withdrawn at various intervals and the residual enzymatic activity was measured. Me2 SO concentration in the reaction mixture was 8-12% (v/v). 0.1M Hepes, 0.5M NaCl, pH 7.5 buffer was utilized for the assays of chymotrypsin, cathepsin G (cat G), porcine pancreatic elastase (PPE), human leukocyte elastase (HLE) and rat granule serine proteases. 0.1M Hepes, 0.01M CaCl2, pH 7.5 buffer was utilized for the assays of trypsin and human recombinant (HR) granzyme A. The inhibitor concentrations are shown in the Tables I and II. Peptide nitroanilides with appropriate sequence were used as substrates for various serine proteases. All peptide 4-nitroanilide hydrolysis was measured at 410 nm (ε410 =8800M^-1 cm^-1; Erlanger et al., Arch. Biochem. Biophys. 95, pp 271-278 (1961), incorporated herein by reference). Peptide thioester hydrolysis rates were measured with assay mixtures containing 4,4'-dithiodipyridine (ε324 =19800M^-1 cm^-1; Grasetti & Murray, Arch. Biochem. Biophys. 119, pp. 41-49 (1967), incorporated herein by reference). First order inactivation rate constant (kobs) were obtained from plots of ln (vt /vo) vs time, and the correlation coefficients were greater than 0.98.
(§2) ^a Inhibition was measured in 0.1 M Hepes, 0.5 M NaCl (or 0.01 M
(§3) CaCl2), pH 7.5 buffer, 5-10% Me2 SO and at 25° C.
(§4) G. MeOSuc-Ala-Ala-Pro-Val-NA (0.24-0.47 mM) and SucAla-Ala-Ala-NA
(§5) (0.29-0.48 mM) were used as the substrate for HLE and PPE respectively.
^d Inhibitor concentrations were 1.6-210 μM.

PPE [3] = target: T1, PPE; experiment: Reactivation of inhibited PPE in buffer and with NH2OH; format: biochemical, porcine; conditions: for % of Enzyme Activity Reactivated, PPE +NH2OH: 0.4 M NH2OH, immediately after addition; for % of Enzyme Activity Reactivated, PPE in buffer: after removal of excess inhibitor, 25° C. for two days, 2880 min
Description: (§6) ^a Inhibition was performed at 0.1 M Hepes, 0.5 M NaCl, pH 7.5 buffer
(§7) 10% Me2 SO and 25° C. Reactivation was carried out in the
presence of 0.4 M of NH2 OH, and occurred immediately after the
(§8) ^b Enzyme activity was measured after removal of excess inhibitor by
(§9) centrifugation at 0° C. with centricon10 microconcentrator and
(§10) staying at 25° C. for two days.

[4] = target: porcine pancreatic elastase (PPE) (Sus scrofa, UniProt P00772); experiment: Inactivation of porcine pancreatic elastase by biotin-isocoumarins (incubation method); format: biochemical; conditions: inhibitor 38-78 μM; pH 7.5, 25° C.; NI = no inhibition after 10 min of incubation; read-out: kobs/[I] PPE
Description: as §1, §2, §3, §4, §5
^e Inhibitor concentrations were 38-78 μM.
(§11) ^h No inhibition after 10 min of incubation of inhibitor and enzyme.

trypsin [5] = target: T3, trypsin (Bos taurus, UniProt P00760); experiment: Reactivation of inhibited trypsin in buffer; format: biochemical; conditions: after removal of excess inhibitor, 25° C. for two days
T3 sequence (P00760 24-246): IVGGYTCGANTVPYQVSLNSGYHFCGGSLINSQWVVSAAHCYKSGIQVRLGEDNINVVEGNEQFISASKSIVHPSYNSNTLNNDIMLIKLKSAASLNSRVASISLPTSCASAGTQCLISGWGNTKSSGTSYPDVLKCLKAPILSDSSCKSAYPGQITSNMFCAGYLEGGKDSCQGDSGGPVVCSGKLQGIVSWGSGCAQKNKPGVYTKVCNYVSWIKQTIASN
Description: as §6, §7, §8, §9, §10

chymotrypsin = chymotrypsin (Bos taurus, UniProt P00766); experiment: Inactivation of chymotrypsin by biotin-isocoumarins (incubation method); format: biochemical, bovine; conditions: pH 7.5, inhibitor 20-400 μM; 0.1 M Hepes, 0.5 M NaCl, pH 7.5, 5-10% Me2SO, 25° C.; two values given for some compounds; read-out: kobs/[I] Chymotrypsin
Description: as §1, §2, §3
(§12) SucVal-Pro-NA (0.48 mM) was used as the substrate for chymotrypsin and ca
^b Inhibitor concentrations were 20-400 μM.

cathepsin G (cat G) = target: T4, cathepsin G (cat G) (Homo sapiens, UniProt P08311); experiment: Inactivation of cathepsin G by biotin-isocoumarins (incubation method); format: biochemical; conditions: inhibitor 75-400 μM; pH 7.5, 25° C.; NI = no inhibition after 10 min of incubation; read-out: kobs/[I] Cat. G
T4 sequence (P08311 21-255): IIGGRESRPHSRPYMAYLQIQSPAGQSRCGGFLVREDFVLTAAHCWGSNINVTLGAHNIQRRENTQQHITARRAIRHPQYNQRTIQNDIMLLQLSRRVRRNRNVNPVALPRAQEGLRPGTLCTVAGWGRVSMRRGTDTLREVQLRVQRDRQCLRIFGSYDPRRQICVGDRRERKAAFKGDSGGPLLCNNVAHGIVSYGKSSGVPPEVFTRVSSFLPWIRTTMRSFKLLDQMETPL
Description: as §1, §2, §3, §12, §4
^c Inhibitor concentrations were 75-400 μM.
as §11
(§13) ^i Percentage of inhibition after 10 min of incubation of inhibitor

trypsin [6] = target: T3, trypsin; experiment: Inactivation of trypsin by biotin-isocoumarins (incubation method); format: biochemical; conditions: inhibitor 41-42 μM; 0.1 M Hepes, 0.01 M CaCl2, pH 7.5, 25° C.; read-out: kobs/[I] Trypsin
Description: as §1, §2, §3
(§14) ZGlu-Phe-Arg-NA (0.032 mM) was a substrate for trypsin. ZArg-SBzl (0.120
^f Inhibitor concentrations were 41-42 μM.

[7] = target: T5, human recombinant (HR) granzyme A (Homo sapiens, UniProt P12544); experiment: Inactivation of human recombinant granzyme A by biotin-isocoumarins (incubation method); format: biochemical; conditions: inhibitor 160-210 μM, pH 7.5, 25° C.
T5 sequence (P12544 29-262): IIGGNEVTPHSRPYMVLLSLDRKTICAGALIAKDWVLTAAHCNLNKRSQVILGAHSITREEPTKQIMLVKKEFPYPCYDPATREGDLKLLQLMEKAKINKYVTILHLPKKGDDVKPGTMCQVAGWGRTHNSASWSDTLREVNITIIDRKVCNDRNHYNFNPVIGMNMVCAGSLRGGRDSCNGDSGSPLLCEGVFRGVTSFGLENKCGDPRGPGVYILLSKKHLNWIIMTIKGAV
Description: as §1, §2, §3, §14
mM) was a substrate for human recombinant (HR) granzyme A.
^g Inhibitor concentrations were 160-210 μM.
as §11, §13

T1 sequence (P00772 27-266): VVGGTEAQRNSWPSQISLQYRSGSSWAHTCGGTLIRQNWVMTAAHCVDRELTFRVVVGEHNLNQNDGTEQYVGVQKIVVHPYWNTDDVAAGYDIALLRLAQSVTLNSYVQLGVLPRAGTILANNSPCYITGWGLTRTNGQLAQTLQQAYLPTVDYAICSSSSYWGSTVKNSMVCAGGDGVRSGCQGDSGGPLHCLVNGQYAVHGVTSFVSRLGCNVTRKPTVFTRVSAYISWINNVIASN
Chain of porcine pancreatic elastase (PPE) (P00772 27-266): as above

% of Regained Enzyme Activity, PPE, +Avidin (PPE [1]; 3-4 units avidin, 2880 min) [%]	% of Regained Enzyme Activity, PPE, +Streptavidin (PPE [1]; 3-4 units streptavidin, 2880 min) [%]	% of Regained Enzyme Activity, PPE, Buffer (PPE [1]; pH 7.5, 8% Me2SO, 25° C.) [%]	kinact/KI [2] [M⁻¹ s⁻¹]	% of Enzyme Activity Reactivated, PPE +NH2OH (PPE [3]) [%]	% of Enzyme Activity Reactivated, PPE in buffer (PPE [3]) [%]	kinact/KI [4] [M⁻¹ s⁻¹]	% of Enzyme Activity Reactivated, Trypsin in buffer (trypsin [5]) [%]	kinact/KI (chymotrypsin) [M⁻¹ s⁻¹]	kinact/KI (cathepsin G (cat G)) [M⁻¹ s⁻¹]	kinact/KI (trypsin [6]) [M⁻¹ s⁻¹]	Percentage of inhibition of HR Granzyme A after 10 min of incubation of inhibitor and enzyme [7] [%]	SMILES
32	43	37	76700	90	37	350	33	260	3.3	10.6	–	CCCOc1oc(=O)c2cc(NC(=O)CCCCCNC(=O)CCCC[C@@H]3SC[C@@H]4NC(=O)N[C@@H]43)ccc2c1Cl [Compound 4, 7-(6-biotinylaminocaproyl)amino-4-chloro-3-propoxyisocoumarin]
–	–	–	96000	93	66	520	92	260	59	16.6	26	CCOc1oc(=O)c2cc(NC(=O)CCCCCNC(=O)CCCC[C@@H]3SC[C@@H]4NC(=O)N[C@@H]43)ccc2c1Cl [Compound 5, 7-(6-biotinylaminocaproyl)amino-4-chloro-3-ethoxyisocoumarin]
